Assay results reported in the supplement of paper PMC10307832.

Key:
Test in all cases: relative viability (nuclei count vs DMSO), 5 days (fraction); higher = more cells survive
201T = test system: 201T
Outline: (§1)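 Relative viability is defined as nuclei in treated wells over nuclei in vehicle wells. Duplicate plates were run and medians reported. Lung cancer cell lines in 1536-well plates were dosed by pin tool one day after seeding, with one drug or with a fixed anchor-drug dose plus five library-drug doses (not always all listed) in √10 steps, and nuclei were counted after 5 days.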

COR-L 105 = test system: COR-L 105
Outline: as §1

ChaGo-K-1 = test system: ChaGo-K-1
Outline: as §1

EKVX = test system: EKVX
Outline: as §1

H3255 = test system: H3255
Outline: as §1

HARA = test system: HARA
Outline: as §1

HCC-827 = test system: HCC-827
Outline: as §1

HOP-62 = test system: HOP-62
Outline: as §1

LCLC-103H = test system: LCLC-103H
Outline: as §1

LOU-NH91 = test system: LOU-NH91
Outline: as §1

NCI-H1975 = test system: NCI-H1975
Outline: as §1

NCI-H2126 = test system: NCI-H2126
Outline: as §1

NCI-H2228 = test system: NCI-H2228
Outline: as §1

NCI-H23 = test system: NCI-H23
Outline: as §1

NCI-H2405 = test system: NCI-H2405
Outline: as §1

NCI-H3122 = test system: NCI-H3122
Outline: as §1

NCI-H596 = test system: NCI-H596
Outline: as §1

NCI-H650 = test system: NCI-H650
Outline: as §1

NCI-H661 = test system: NCI-H661
Outline: as §1

NCI-H727 = test system: NCI-H727
Outline: as §1

PC-3 [JPC-3] = test system: PC-3 [JPC-3]
Outline: as §1

SK-LU-1 = test system: SK-LU-1
Outline: as §1

SW 900 = test system: SW 900
Outline: as §1

CCNC(=O)c1noc(-c2cc(C(C)C)c(O)cc2O)c1-c1ccc(CN2CCOCC2)cc1 [Luminespib] + O=C(CCCCCCC(=O)Nc1ccccc1)NO [Vorinostat] (partner 1 µM)
relative viability (201T; first compound 0.002 µM): 0.959
relative viability (201T; first compound 0.006325 µM): 0.872
relative viability (201T; first compound 0.02 µM): 0.768
relative viability (201T; first compound 0.06325 µM): 0.913
relative viability (201T; first compound 0.2 µM): 0.324
relative viability (COR-L 105; first compound 0.002 µM): 0.917
relative viability (COR-L 105; first compound 0.006325 µM): 0.84
relative viability (COR-L 105; first compound 0.02 µM): 0.959
relative viability (COR-L 105; first compound 0.06325 µM): 0.43
relative viability (COR-L 105; first compound 0.2 µM): 0.278
relative viability (ChaGo-K-1; first compound 0.002 µM): 0.678
relative viability (ChaGo-K-1; first compound 0.006325 µM): 0.728
relative viability (ChaGo-K-1; first compound 0.02 µM): 0.529
relative viability (ChaGo-K-1; first compound 0.06325 µM): 0.523
relative viability (ChaGo-K-1; first compound 0.2 µM): 0.23
relative viability (EKVX; first compound 0.002 µM): 0.466
relative viability (EKVX; first compound 0.006325 µM): 0.684
relative viability (EKVX; first compound 0.02 µM): 0.47
relative viability (EKVX; first compound 0.06325 µM): 0.669
relative viability (EKVX; first compound 0.2 µM): 0.572
relative viability (H3255; first compound 0.002 µM): 0.843
relative viability (H3255; first compound 0.02 µM): 0.625
relative viability (H3255; first compound 0.06325 µM): 0.745
relative viability (H3255; first compound 0.2 µM): 0.248
relative viability (HARA; first compound 0.002 µM): 0.51
relative viability (HARA; first compound 0.006325 µM): 0.504
relative viability (HARA; first compound 0.02 µM): 0.591
relative viability (HARA; first compound 0.06325 µM): 0.589
relative viability (HARA; first compound 0.2 µM): 0.132
relative viability (HCC-827; first compound 0.002 µM): 0.817
relative viability (HCC-827; first compound 0.006325 µM): 0.884
relative viability (HCC-827; first compound 0.02 µM): 0.45
relative viability (HCC-827; first compound 0.06325 µM): 0.797
relative viability (HCC-827; first compound 0.2 µM): 0.144
relative viability (HOP-62; first compound 0.002 µM): 0.527
relative viability (HOP-62; first compound 0.006325 µM): 0.555
relative viability (HOP-62; first compound 0.02 µM): 0.454
relative viability (HOP-62; first compound 0.06325 µM): 0.18
relative viability (HOP-62; first compound 0.2 µM): 0.0867
relative viability (LCLC-103H; first compound 0.002 µM): 0.616
relative viability (LCLC-103H; first compound 0.006325 µM): 0.718
relative viability (LCLC-103H; first compound 0.02 µM): 0.661
relative viability (LCLC-103H; first compound 0.06325 µM): 0.75
relative viability (LCLC-103H; first compound 0.2 µM): 0.25
relative viability (LOU-NH91; first compound 0.002 µM): 0.935
relative viability (LOU-NH91; first compound 0.006325 µM): 0.872
relative viability (LOU-NH91; first compound 0.02 µM): 0.647
relative viability (LOU-NH91; first compound 0.06325 µM): 0.335
relative viability (LOU-NH91; first compound 0.2 µM): 0.377
relative viability (NCI-H1975; first compound 0.002 µM): 0.736
relative viability (NCI-H1975; first compound 0.006325 µM): 0.632
relative viability (NCI-H1975; first compound 0.02 µM): 0.592
relative viability (NCI-H1975; first compound 0.06325 µM): 0.138
relative viability (NCI-H1975; first compound 0.2 µM): 0.147
relative viability (NCI-H2126; first compound 0.002 µM): 0.743
relative viability (NCI-H2126; first compound 0.006325 µM): 0.765
relative viability (NCI-H2126; first compound 0.06325 µM): 0.468
relative viability (NCI-H2126; first compound 0.2 µM): 0.192
relative viability (NCI-H2228; first compound 0.002 µM): 0.873
relative viability (NCI-H2228; first compound 0.006325 µM): 0.503
relative viability (NCI-H2228; first compound 0.02 µM): 0.54
relative viability (NCI-H2228; first compound 0.06325 µM): 0.143
relative viability (NCI-H2228; first compound 0.2 µM): 0.15
relative viability (NCI-H23; first compound 0.002 µM): 0.632
relative viability (NCI-H23; first compound 0.006325 µM): 0.481
relative viability (NCI-H23; first compound 0.02 µM): 0.315
relative viability (NCI-H23; first compound 0.06325 µM): 0.0969
relative viability (NCI-H23; first compound 0.2 µM): 0.108
relative viability (NCI-H2405; first compound 0.002 µM): 1.11
relative viability (NCI-H2405; first compound 0.02 µM): 0.884
relative viability (NCI-H2405; first compound 0.06325 µM): 0.194
relative viability (NCI-H2405; first compound 0.2 µM): 0.165
relative viability (NCI-H3122; first compound 0.002 µM): 0.991
relative viability (NCI-H3122; first compound 0.006325 µM): 0.973
relative viability (NCI-H3122; first compound 0.02 µM): 0.456
relative viability (NCI-H3122; first compound 0.06325 µM): 0.787
relative viability (NCI-H3122; first compound 0.2 µM): 0.067
relative viability (NCI-H596; first compound 0.002 µM): 0.61
relative viability (NCI-H596; first compound 0.006325 µM): 0.553
relative viability (NCI-H596; first compound 0.02 µM): 0.434
relative viability (NCI-H596; first compound 0.06325 µM): 0.634
relative viability (NCI-H596; first compound 0.2 µM): 0.574
relative viability (NCI-H650; first compound 0.002 µM): 0.429
relative viability (NCI-H650; first compound 0.006325 µM): 0.392
relative viability (NCI-H650; first compound 0.02 µM): 0.298
relative viability (NCI-H650; first compound 0.06325 µM): 0.158
relative viability (NCI-H650; first compound 0.2 µM): 0.103
relative viability (NCI-H661; first compound 0.002 µM): 0.777
relative viability (NCI-H661; first compound 0.006325 µM): 0.803
relative viability (NCI-H661; first compound 0.02 µM): 0.759
relative viability (NCI-H661; first compound 0.06325 µM): 0.345
relative viability (NCI-H661; first compound 0.2 µM): 0.306
relative viability (NCI-H727; first compound 0.002 µM): 1.1
relative viability (NCI-H727; first compound 0.006325 µM): 1.21
relative viability (NCI-H727; first compound 0.02 µM): 0.832
relative viability (NCI-H727; first compound 0.06325 µM): 1.04
relative viability (NCI-H727; first compound 0.2 µM): 0.31
relative viability (PC-3 [JPC-3]; first compound 0.002 µM): 0.737
relative viability (PC-3 [JPC-3]; first compound 0.006325 µM): 0.361
relative viability (PC-3 [JPC-3]; first compound 0.02 µM): 0.491
relative viability (PC-3 [JPC-3]; first compound 0.06325 µM): 0.381
relative viability (PC-3 [JPC-3]; first compound 0.2 µM): 0.287
relative viability (SK-LU-1; first compound 0.002 µM): 0.927
relative viability (SK-LU-1; first compound 0.006325 µM): 0.596
relative viability (SK-LU-1; first compound 0.02 µM): 0.615
relative viability (SK-LU-1; first compound 0.06325 µM): 0.262
relative viability (SK-LU-1; first compound 0.2 µM): 0.211
relative viability (SW 900; first compound 0.002 µM): 0.455
relative viability (SW 900; first compound 0.006325 µM): 0.489
relative viability (SW 900; first compound 0.02 µM): 0.266
relative viability (SW 900; first compound 0.06325 µM): 0.124
relative viability (SW 900; first compound 0.2 µM): 0.0992
